Structure (SMILES)	melting point [°C]
CC(C)Cn1c(=O)n(C)c(=O)c2cc(C(=O)O)cnc21	219 to 221
Cc1cc(C)n(-c2cncc(Cl)n2)n1	88 to 90
CN1CCOC(C(=O)c2ccc(Cl)cc2)C1 (configuration not stated)	59 to 61
O=C(O)Cc1csc2nc(-c3ccccc3)cn12	220 to 222
O=C1Nc2c(I)cccc2C1=O	200 to 202
CSC(=S)NN=C(C)c1ccccc1	149 to 151
COc1ccccc1-n1cnnc1S	204 to 206
NC(=O)COc1cccnc1	93 to 95
Clc1nc(Cl)c2ccccc2n1	117 to 119
COc1ccc(C(N)=O)c(O)c1	145 to 147
CCC(CC)C(O)CN (configuration not stated)	39 to 41
O=C1C=CC(=O)N1c1ccc(F)cc1	160 to 162
O=C(O)c1cc(-c2ccc(OC(F)F)cc2)nc2ccccc12	224 to 226
NC(=O)COCc1ccccc1	92 to 94
NC(=NO)c1cc(Br)cs1	132 to 134
Cc1nn(C)c2ncc(N)cc12	84 to 86
Nc1cc(-c2cccc(Br)c2)no1	122 to 124
O=C(O)c1cccc(C(F)(F)C(F)(F)F)c1	94 to 96
Cc1ccc(-n2nc(N)cc2C)cc1	99 to 101

Structure (SMILES)	melting point [°C]
CN(c1ccc(CN)cc1)S(C)(=O)=O	46 to 48
COc1cc(C(=O)O)ccc1OCc1ccccc1	174 to 176
CCOC(C)c1nc(C)c(C(=O)O)s1 (configuration not stated)	112 to 114
O=C1OCCN1c1ccc([N+](=O)[O-])cc1	154 to 156
COc1ccc(S(=O)(=O)N2CCN(C)CC2)cc1N	107 to 109
Cc1sc2ncn(N)c(=O)c2c1C	131 to 133
C=CCn1c(N)c(C(N)=S)sc1=S	195 to 197
CC(N)c1ccccc1-c1ccccc1 (configuration not stated)	76 to 78
CC(C)(C)OC(=O)Nc1cc2c(cc1N)OCCO2	119 to 121
CCC(=O)Nc1cccc(C(=O)O)c1	229 to 231
Cc1ccc(-c2cn[nH]c2)cc1	217 to 219
CN1CCN(CCOc2ccc(N)cc2)CC1	63 to 65
O=C(O)c1cccnc1Oc1cccc(Br)c1	167 to 169
CC(C)c1ccc(N2Cc3ccc(N)cc3C2)cc1	164 to 166
O=[N+]([O-])c1cc(NS(=O)(=O)c2ccc3c(c2)OCCCO3)ccc1F	145 to 147
Cc1ccc(Sc2ccc(Cl)cc2N)c(C)c1	86 to 88
CC(=O)c1cccc(N2C(=O)C=CC2=O)c1	104 to 106
CCOC(=O)c1sc(O)nc1C	171 to 173
O=C(CCl)NCC1(c2ccccc2)CCCCC1	54 to 56

Structure (SMILES)	melting point [°C]
C=CCNC(=O)c1ccccc1N	92 to 94
Cn1ccnc1-c1cc(N)[nH]n1	167 to 169
O=C1Nc2cc(F)ccc2C1=O	184 to 186
O=C(O)Cn1cnc2ccc(Br)cc2c1=O	277 to 279
Cc1ccc(NC(=O)C(C)Cl)c(F)c1 (configuration not stated)	105 to 107
Nc1cccc(-c2noc(C3CC3)n2)c1	69 to 71
O=[N+]([O-])c1cccc2ncnc(O)c12	239 to 241
O=C(O)c1ccccc1NCCO	142 to 144
OCC1(NCc2ccccc2)CCC1	51 to 53
NCc1ccnc(N)c1	92 to 94
O=C(O)c1cc2ccccc2c(Nc2ccccc2F)n1	224 to 226
Cc1cc2ncn(Cc3ccc(F)cc3)c2cc1C	135 to 137
O=S(=O)(Cl)c1cnn(Cc2ccccc2)c1	57 to 59
COc1cc(C(=O)O)cc2c1OCCO2	203 to 205
CC(C)C1CCNC(=O)CC1 (configuration not stated)	76 to 78
NS(=O)(=O)c1cc([N+](=O)[O-])cs1	165 to 167
NS(=O)(=O)CCS(=O)(=O)c1ccc(F)cc1	173 to 175
COC(=O)c1ccc(F)cc1S(=O)(=O)Cl	63 to 65
O=C(O)c1c[nH]c2ccc(F)cc12	225 to 227

From a melting point compilation (Tetko et al.)
